These results are taken from patent US12338216B2, “Solvates of abscisic acid and liquid compositions containing abscisic acid” (Clariant International Ltd., priority 2019, dated 2025).

In series [1] the test system is poinsettia plants, e.g. the Merlot variety. As to the kind of experiment: Phytotoxicity / plant compatibility on indicator plants. Format: in vivo. As to conditions: 1 g/L; within one day. From the text: The plant compatibility of the abscisic acid was checked using indicator plants such as poinsettia plants, e.g. the Merlot variety. If no necrosis or other phytotoxicity symptoms such as leaf curl-up or deformation in any case were observed the substance is considered plant compatible and not phytotoxic.

Series [2] has as its system enzymatically isolated cuticles of pear tree leaves. As to the kind of experiment: Penetration of abscisic acid through enzymatically isolated cuticles of pear tree leaves (HPLC). Format: in vitro ADME. As to conditions: active ingredient 0.1 g/L in spray liquid, tap water, n = 8-10. As to the method:
In this test, the penetration of abscisic acid through enzymatically isolated cuticles of pear tree leaves was measured. The principle of the method has been published and described in detail e.g. in WO-A-2005/194844 or WO2017211572 A1.
To determine the penetration, 10 μl a spray liquor of the composition mentioned in the examples were applied to the outer side of a cuticle. In the spray liquors tap water was used in each case.
After application of the spray liquors was allowed to evaporate in each case the water, then in each case the chambers were inverted and placed in thermostated troughs, with air being blown at a defined temperature and humidity to the outside of the cuticle. The incipient penetration therefore took place at a relative humidity of 56% and a set temperature at 10° C. and 25° C. The penetration of active ingredients was determined by High Performance Liquid Chromatography (HPLC).

The conditions of series [3]: room temperature; cited from earlier work.

ethoxylated lauryl alcohol: in series [1], the Phytotoxicity symptoms result was “strong distinct necrosis”.
On to `CC1=CC(=O)CC(C)(C)[C@@]1(O)/C=C/C(C)=C\C(=O)O` [abscisic acid, (2Z,4E)-5-[(1S)-1-hydroxy-2,6,6-trimethyl-4-oxocyclohex-2-en-1-yl]-3-methylpenta-2,4-dienoic acid], for which the “Mean penetration for abscisic acid after time” value in series [2] (10° C./56% rH, 1 day) is given as 5.3%; in series [2] (10° C./56% rH, 2 day), 8.2%; in series [2] (25° C./56% rH, 1 day) it was 1.4%; in series [2] (25° C./56% rH, 2 day), 2.2%. For the same compound, the “Highest concentration that can be achieved in water” value in series [3] is “about 3000 ppm”.
